Experiment: gradient 5% acetonitrile 3 min, to 50% in 2 min, to 85% in 15 min, held 3 min, 100 µL/min
Details: column: Zorbax Extend-C18 2.1 x 50 mm; eluents: water / acetonitrile, 0.1% formic acid
Summary of the method: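 The system's dead and dwell volumes were 40 μL and 900 μL, with a Zorbax Extend-C18 column (2.1 × 50 mm, 1.8 μm) run at 100 μL/min in water and acetonitrile containing 0.1% formic acid each. Pure standards were analyzed in mixtures of ~100 molecules by HPLC–quadrupole time-of-flight mass spectrometry in positive and negative ionization mode. Retention time was assigned from computationally picked, manually inspected adduct peaks.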

Structure (SMILES) | RP-LC retention time
COC(=O)c1ccc(NC(=O)C2(C)Oc3cccnc3N(C(C)C)C2=O)cc1 (stereo not given) | 991 s
CC1CCN(C(=O)C2=NN(Cc3ccc(F)cc3)c3ccccc3S2(=O)=O)CC1 | 1000 s
Cn1c(CN2CCN(C(=O)c3ccco3)CC2)nc2cc(NC(=O)C3CCCCC3)ccc21 | 664 s
O=C(N/N=C/c1ccc([N+](=O)[O-])o1)c1ccc(O)cc1 | 675 s
CCC(C)C(NC(=O)c1ccc2c(c1)OCO2)C(=O)Nc1nc2ccccc2[nH]1 (stereo not given) | 718 s
COc1cc(Cl)c(NC(=O)C2CCN(C(=O)c3cc(-c4ccncc4)n[nH]3)CC2)c(OC)c1 | 629 s
Cc1noc(-c2cc(=O)n(CC(=O)Nc3ccc4c(c3)OCO4)c3ccccc23)n1 | 831 s
CC(C)NC(=O)N1CC[C@H](n2c(=O)n(C)c3cccnc32)C1 | 632 s
COc1ccc(NC(=O)c2c(-c3c(F)cccc3Cl)noc2C)cc1[N+](=O)[O-] | 992 s
Cc1ccc(-c2nc(-c3ccc4c(c3)ncn4CCN3CCCCC3)no2)s1 | 646 s
CCOC(=O)c1c(C)oc2nc(C)nc(N3CCN(c4ccccc4F)CC3)c12 | 1210 s
CSc1ccc(-c2nc3cc(C)ccn3c2Nc2ccc(Cl)cc2)cc1 | 840 s
CCOc1ccc(CNc2nc3ccccc3n2CCN(CC)CC)cc1 | 1300 s
CCn1ccc2sc(C)c(C(=O)NCc3ccc(OC)cc3)c2c1=O | 786 s
COc1cc(NC(=O)N2CCC(n3c(C)nc4cccnc43)CC2)cc(OC)c1 | 637 s
COc1ccc(-c2noc(C3CCCN3C(=O)c3cccc(F)c3)n2)cc1 (stereo not given) | 946 s
CCC(=O)NCC12CCCC=C1N(C)C(=O)CC2 (stereo not given) | 648 s
Cc1ccc(NC(=O)N2C[C@@H](F)C[C@H]2C(=O)N2CCc3ccccc3C2)c(Cl)c1 | 831 s
Cc1cc(C)cc(N2CCC(NC(=O)Nc3cc(C)ccc3C)C2=O)c1 (stereo not given) | 955 s
COCCNc1nc(-c2ccc([N+](=O)[O-])cc2)nc2ccccc12 | 696 s
Cc1ccc(-c2csc(NC(=O)CCCOc3ccc(Cl)cc3Cl)n2)cc1 | 1290 s
CCOCCCNC(=O)C1CCCN(C(=O)c2[nH]c(C)cc2C)C1 (stereo not given) | 678 s

Structure (SMILES) | RP-LC retention time
COc1ccc(-c2cc(C(F)(F)F)n3nc(C(=O)O)c(Cl)c3n2)cc1OC | 855 s
Cc1ccc(CNC(=O)C2CCN(S(=O)(=O)c3c(C)[nH]c(C)c3C(=O)N3CCCC3)CC2)o1 | 679 s
COc1ccccc1C(=O)N1CCCC1COc1ccc(C(=O)NC2CC2)cc1 (stereo not given) | 759 s
CC(=O)c1ccc(NC(=O)c2cccc(N3C(=O)NC4CC3(C)Oc3ccccc34)c2)cc1 (stereo not given) | 815 s
CCCCNc1cc(C)nc2nc(-c3ccc(C(C)(C)C)cc3)nn12 | 1100 s
NS(=O)(=O)OC[C@@H]1C[C@@H](n2ccc3c(N[C@H]4CCc5ccccc54)ncnc32)C[C@H]1O | 724 s
Cc1cccc(N(C)C(=O)Cn2nc3nc(N4CCCC(C)C4)ccn3c2=O)c1 (stereo not given) | 808 s
O=C(Nc1ccc(F)cc1)N1CCc2nc(-c3ccc(F)cc3)ncc2C1 | 926 s
Cc1ccc(CNC(=O)C2(C)CN(S(=O)(=O)c3ccccc3)CC(=O)N2C2CC2)cc1 (stereo not given) | 783 s
CN1C(=O)c2cc(C(=O)N3CCC(C(N)=O)CC3)nn2CC1(C)C(=O)NC1CCCCCC1 (stereo not given) | 956 s
O=C(Nc1ccc(F)c(Cl)c1)NC1CCCN(c2cc(-c3ccncc3)[nH]n2)C1 (stereo not given) | 657 s
CCOC(=O)c1cccc(Nc2ncccc2S(N)(=O)=O)c1 | 854 s
Cc1cc(C)c(NC(=O)Cn2c(=O)cc(-c3nc(C4CC4)no3)c3ccccc32)c(C)c1 | 999 s
Cc1ccccc1NC(=O)CN(C)S(=O)(=O)c1cc(C(=O)N2CCC(C)CC2)n(C)c1 | 954 s
CCc1ccc(S(=O)(=O)N2CCN(Cc3nc4cc(C(C)(C)C)ccc4o3)CC2)cc1 | 998 s
Cc1noc([C@@H]2CN(Cc3ccc(F)c(Cl)c3)C[C@H]2CO)n1 | 605 s
CCNC(=O)Nc1ccc2c(c1)CN(Cc1cn(C(C)C)c3ccc(OC)cc13)CCO2 | 726 s
CCn1nc(C)c2ccnc(N3CCC(C(=O)N4CCN(c5cccc(OC)c5)CC4)CC3)c21 | 712 s
COC(=O)c1ccc(C2NC(=O)c3[nH]nc(-c4ccc(OC)cc4)c32)cc1 (stereo not given) | 702 s
COC(=O)CNC(=O)N1CCC(N2C(=O)C3(CCCC3)C2c2scnc2C)CC1 (stereo not given) | 653 s
CCN1C(=O)COc2ccc(-c3noc(-c4ccc(C)cc4)n3)cc21 | 1230 s
O=C(c1cccs1)N1CCc2c([nH]c3ccccc23)C1c1ccc(Cl)cc1 (stereo not given) | 1220 s

Structure (SMILES) | RP-LC retention time
O=C(Cn1c(=O)n(C2CCCCC2)c2ncccc21)NCCN1CCOCC1 | 627 s
Cc1nc(NC(=O)CCn2cnc3ccccc3c2=O)sc1C(=O)N(C)C | 589 s
O=C(CNC(=O)c1ccc(F)cc1)Nc1nc2ccccc2[nH]1 | 608 s
Cc1ccc(-c2cc(N3CCN(C(=O)c4ccc(C)c(C)c4)CC3)ncn2)cc1 | 736 s
Cc1cc(C)cc(Nc2nc(C)cc3nn(CC(=O)NC4CCCC4)c(=O)n23)c1 | 998 s
CCCn1cnc2cc(CNC(=O)c3cnccn3)ccc21 | 578 s
CN(C)C(=O)c1ccc2c(c1)nnn2CCNC(=O)Nc1cc(Cl)ccc1Cl | 719 s
O=C1CC(c2noc(-c3cccc(F)c3)n2)CN1c1ccccc1 (stereo not given) | 958 s
N#CCn1cccc1-c1nc(-c2cccnc2)no1 | 776 s
COc1ncc(C(=O)NCc2ccc(Br)cc2)cn1 | 773 s
Cc1ccc(S(=O)(=O)c2cnc3cc4c(cc3c2N2CCOCC2)OCCO4)cc1 | 849 s
COc1ccc(C(=O)N2CCC3(CC2)NC(=O)c2cc(F)ccc2N3C)c(OC)c1 | 734 s
Cc1ccc(NC(=O)N2CCc3nc[nH]c3C2)c(C)c1 | 578 s
Cc1ccc2nc(CNC(=O)Cn3nc(C(=O)N4CCCC4)c4ccccc43)[nH]c2c1 | 600 s
CC(=O)NCC(=O)N1c2ccccc2CC1c1nc(C(C)C)no1 (stereo not given) | 724 s
CCOC(=O)c1cccc(Nc2c(-c3ccc(N(C)C)cc3)nc3cnccn23)c1 | 837 s
Nc1nnc(-c2cccnc2)s1 | 587 s
CC(C)NC(=O)Cn1cc(-c2ccccc2)c2ncnc(N3CCOCC3)c21 | 659 s
CN(C)CC1CCC/C(=C\c2ccc(OC(=O)/C=C/c3ccccc3)cc2)C1=O (stereo not given) | 796 s
O=C(NCc1cccc2ccccc12)NCC1CCN(C(=O)Oc2ccccc2)CC1 | 866 s
O=C(Cn1c(=O)cc(-c2nc(C3CC3)no2)c2ccccc21)NCc1ccccc1F | 902 s

From the METLIN SMRT retention time set (Domingo-Almenara et al. 2019)
